Test results reported in patent publication US9345705B2, “Compositions and methods for treating cancer” (Merck Sharp & Dohme Corp., priority 2011, dated 2016).
Where two headings read alike, the source gives them in different places.

Key:
[1] = tested on: A2058 melanoma cancer cell line; assay: Cell proliferation by ATP vialight, 9-point titrations with fixed concentrations of the complementary drug; format: cell-based, human; settings: for EC50: Homo sapiens, 72 hours
Description: To determine the ability of each drug to potentiate the activity of the other, Applicants performed 9-point titrations of each in the added presence of increasing, but fixed, concentrations of the complimentary drug (FIGS. 1A and 1B). Analysis of cell proliferation was determined after 72 hours (3 days) incubation with either DMSO (as control) or the indicated concentrations of MK-1775 and MK-8776 by ATP vialight (Promega). […] EC50 concentrations were calculated (GraphPad Prism, GraphPad Software, San Diego, Calif.).
Inhibition of WEE1 and CHK1 lead to aberrant CDK1 and/or CDK2 activity, and without wishing to be bound by any theory, this is thought to underlie the potential of either target for having deleterious effects on actively dividing tumor cells. Because of the possible overlap in the MK-1775 and MK-8776 mechanisms of action, Applicants carried out […] synergy experiments.

[2] = tested on: A2058 melanoma, HT-29 colorectal and LoVo colorectal cancer cells; assay: Growth assay (ATP ViaLight) at concentrations with negligible single-agent effect; format: cell-based, human
Description: A2058 melanoma cancer cells were treated with 125 nM MK-1775, 150 nM MK-8776, or both. HT-29 colorectal cancer cells were treated with 125 nM MK-1775, 300 nM MK-8776, or both. LoVo colorectal cancer cells were treated with 40 nM MK-1775, 75 nM MK-8776, or both. FIG. 2A depicts cell proliferation and was scored at either 48 or 72 hours as the percentage of ATP ViaLight® (ViaLight® Assay, Lonza, Basel, Switzerland) of treated samples relative to DMSO treated controls.

LoVo cells = assay: DNA damage (γH2AX) by flow cytometry in LoVo cells; format: cell-based, human
Description: A2058 melanoma cancer cells were treated with 125 nM MK-1775, 150 nM MK-8776, or both. HT-29 colorectal cancer cells were treated with 125 nM MK-1775, 300 nM MK-8776, or both. LoVo colorectal cancer cells were treated with 40 nM MK-1775, 75 nM MK-8776, or both. […] FIG. 2B depicts DNA damage and was scored at either 24 or 48 hours as the percentage of cells positive for the DNA damage marker γH2AX (histone H2AX phosphorylated at serine 139) determined by flow cytometry.

LoVo xenograft tumors [3] = assay: Pharmacodynamic DNA damage analysis (Western blot pCHK1 S345, IHC γH2AX) in xenograft tumors; format: in vivo, CD-1 Nu/Nu female mice; settings: 2 days BID, 60 mpk each agent
Description: CD-1 Nu/Nu female mice aged 5-6 weeks (Charles River Laboratories) were inoculated with 5×10^6 LoVo cells in 100 uL (1:1 Matrigel:PBS) subcutaneously (S.C.) into the right flank. […] Three animals from each group were sacrificed via carbon dioxide inhalation at 2 hours, 24 hours, or 48 hours after the 4th and final dose of the 2 day BID schedule. Tumors were resected, split roughly in half, and stored in 10% formalin for immunohistochemistry (IHC) or at −80° C. for Western blot analysis.

LoVo xenograft tumors [4] = assay: Anti-tumor efficacy in xenograft model of human colorectal cancer; format: in vivo, CD-1 Nu/Nu female mice; settings: study day 18, 3 cycles of 2 day BID dosing, 50 mpk, single agent plus vehicle
Description: The anti-tumor efficacy of this combination was assessed in a xenograft model of human colorectal cancer. CD-1 Nu/Nu female mice aged 5-6 weeks (Charles River Laboratories) were inoculated with 5×10^6 LoVo cells in 100 uL (1:1 Matrigel:PBS) S.C. into the right flank. […] Tumor volume and body weights were recorded bi-weekly.

Row | SMILES | effect on A2058 proliferation by itself [1] | maximum cell growth inhibition at the highest concentration of MK-8776 [1] | shift in the MK-1775 response curve (sham synergy experiment) [1] | shift of MK-8776 EC50 curves [1] | shift of the MK-1775 response curve caused by added drug [1] | effect in growth assay, single agent [2] | cells with detectable γH2AX (LoVo cells) [%] | pCHK1 S345 by Western blot at 2 hours after the final dose (LoVo xenograft tumors [3]) | pCHK1 S345 effect at 24 hours after the final dose (LoVo xenograft tumors [3]) | T/C (LoVo xenograft tumors [4]) [%] | reduction of MK-1775 EC50 ([1]; A2058 cells, addition of 150 nM MK-8776) [fold] | EC50 ([1]; A2058 cells, MK-1775 alone, read-out: average EC50 of growth inhibition) [nM] | EC50 ([1]; A2058 cells, addition of 150 nM MK-8776, read-out: average MK-1775 EC50 with added MK-8776) [nM] | shift in the MK-1775 response curve (sham synergy experiment) ([1]; MK-1775 titrated over 75 nM of the labelled drug) | effect in growth assay, single agent ([2]; A2058: 125 nM MK-1775, 150 nM MK-8776, HT-29: 125 nM, 300 nM, LoVo: 40 nM, 75 nM, 48 or 72 hours) | cells with detectable γH2AX (LoVo cells; LoVo cells, 24 hour treatment, 40 nM MK-1775, 75 nM MK-8776, or both) [%]
1 | Cn1cc(-c2cnn3c(N)c(Br)c([C@@H]4CCCNC4)nc23)cn1 [MK-8776, (R)-(−)-6-Bromo-3-(1-methyl-1H-pyrazol-4-yl)-5-piperidin-3-yl-pyrazolo[1,5-a]pyrimidin-7-ylamine] | do not effect A2058 proliferation | dose-dependent increase | robust potency shift | leftward shifts in EC50 curves | leftward shift of the MK-1775 response curve | negligible effect | 5 | transient increase | lost | 52 | – | – | – | – | – | –
2 | C=CCn1c(=O)c2cnc(Nc3ccc(N4CCN(C)CC4)cc3)nc2n1-c1cccc(C(C)(C)O)n1 [MK-1775, 2-allyl-1-[6-(1-hydroxy-1-methylethyl)pyridin-2-yl]-6-{[4-(4-methylpiperazin-1-yl)phenyl]amino}-1,2-dihydro-3H-pyrazolo[3,4-d]pyrimidin-3-one] | – | – | – | – | – | – | – | transient increase | lost | 42 | 5 | 225 | 45 | did not cause a shift in the response curve | negligible effect | 6
